Data from US20080241274A1 (ZIOPHARM Oncology, Inc., priority 2006, published 2008).
Where two headings read alike, the source gives them in different places. Blank lines part the entries; values can stand above or below the molecule they belong to.

Tests used:
[1] = tested on: biotin-labeled calf brain tubulin; experiment: Competition with 3H-colchicine for tubulin binding (SPA beads); design: species or system bovine; details: 200-fold molar excess of cold competitor; FIG. 8
Protocol: (§1) Where indicated, a 200-fold molar excess of cold competitor was added. Tubulin heterodimers were then precipitated with streptavidin-coated SPA beads and bound radioactivity was determined. “No tubulin” indicates non-specifically bound radioactivity measured in the absence of biotin-labeled tubulin.

[2] = tested on: biotin-labeled calf brain tubulin; experiment: Competition with 3H-indibulin for tubulin binding (SPA beads); design: species or system bovine; details: 200-fold molar excess of cold competitor; FIG. 7
Protocol: as §1

[3] = tested on: MCF-7 ER-positive breast cancer; experiment: Monolayer assay (DNA content by propidium iodide), single agents and indibulin combinations, MCF-7; type: cell-based, human; details: for IC50: Homo sapiens; for CI (e), coefficient of interaction under optimal experimental concentrations: named drug in combination with indibulin, mean of quadruplicate
Protocol: (§2) The monolayer assay determines the in vitro antitumor activity of test compounds and their capacity to inhibit survival and proliferation of established tumor cell lines. These effects can be determined by establishing the number of viable cells based on measuring the DNA content using propidium iodide. […] Between 5,000 and 10,000 cells were seeded in 96 well plates on Day 0 and the compounds were added 1 day later and incubated for 4 days. The activity was assessed by their IC50 and IC70 values.
(§3) Growth IC50 and IC70 values (Table 2) were determined using XLfit software package, and used to set the concentration ranges and drug ratios for the synergy detection part of the study.
(§4) Chou-Talalay median effect method was used to quantitatively characterize drug-drug interaction [Chou T. C. Theoretical basis, experimental design, and computerized simulation of synergism and antagonism in drug combination studies. Pharmacol Rev. 2006 September; 58(3):621-81]. […] Mixtures of the drugs at multiples of their single agent IC50's were prepared, as well as serial dilutions of the mixture. Additionally, single agent dose response was determined for the same concentration ranges as used for combination study.
(§5) The coefficient of interaction (CI(IC50)) at IC50 and coefficient of interaction under optimal experimental concentrations (CI(e)) were determined using CalcuSyn software package (Table 3, tests were performed in quadruplicate, mean values reported). Commonly, experimental values of CI<0.8 are considered synergistic, 0.8<CI<1.2 additive.

[4] = tested on: SKOV3 (ovarian); experiment: Monolayer assay (DNA content by propidium iodide), single agents and indibulin combinations, SKOV3; type: cell-based, human; details: for Single Agent IC50: SKOV3, single agent (combination study); for Combination IC50 / CI (e), coefficient of interaction under optimal experimental concentrations: SKOV3; for CI (e), coefficient of interaction under optimal experimental concentrations: named drug in combination with indibulin, mean of quadruplicate; for IC50: Homo sapiens
Protocol: as §2, §3, §4, §5

[5] = tested on: A549 NSCLC; experiment: Monolayer assay (DNA content by propidium iodide), single agents and indibulin combinations, A549; type: cell-based, human; details: for CI (e), coefficient of interaction under optimal experimental concentrations: named drug in combination with indibulin, mean of quadruplicate; for IC50: Homo sapiens
Protocol: as §2, §3, §4, §5

[6] = tested on: PC3 (prostate); experiment: Monolayer assay (DNA content by propidium iodide), single agents and indibulin combinations, PC3; type: cell-based, human; details: for IC50: Homo sapiens, read-out: Single Agent IC50; for Combination IC50 / CI (e), coefficient of interaction under optimal experimental concentrations: PC3; for Combination IC50: concentration of the named drug in the combination; for CI (e), coefficient of interaction under optimal experimental concentrations: named drug in combination with indibulin, mean of quadruplicate
Protocol: as §2, §3, §4, §5

[7] = tested on: adult bovine brain tubulin; experiment: Tubulin polymerization, adult bovine brain tubulin; type: biochemical; details: calf and adult bovine brain tubulin compared
Excerpt: Tubulin from neuronal tissue is post-translationally modified and the degree of modification increases during neuronal development. Calf brain neuronal tubulin and tubulin from other tissues differ in their post-translational modifications from that of adult bovine brain. […] Tubulin polymerization is given as % over DMSO control.

[8] = tested on: axonal microtubules of rat pheochromocytoma (PC12) cells; experiment: Axonal microtubule immunostaining in NGF-differentiated PC12 cells; type: cell-based; details: PC12 neurites induced by NGF 5-6 days; 24 h treatment at 2×IC50 concentration
Excerpt: The outgrowth of neurites of PCl2 was induced by NGF for 5-6 days. […] Microtubules within the neurites, were visualized by immunostaining with an antibody recognizing acetylated (axonal) tubulin, leaving the cell bodies unstained.

[9] = MCF7, 96 h, MCF7, single agent, 4 days incubation, read-out: Growth IC50
[10] = MCF7, MCF7, single agent (combination study), read-out: Single Agent IC50
[11] = MCF7, single agent (combination study)
[12] = MCF7, indibulin + paclitaxel (paclitaxel:indibulin 0.27:1), concentration of the named drug in the combination
[13] = MCF7, indibulin + 5-FU (5FU:indibulin 10.9:1), concentration of the named drug in the combination
[14] = A549, single agent (combination study)
[15] = A549, indibulin + carboplatin (carboplatin:indibulin 303:1), concentration of the named drug in the combination
[16] = A549, 96 h, A549, single agent, 4 days incubation, read-out: Growth IC50
[17] = MCF7, indibulin + vinorelbine (vinorelbine:indibulin 0.016:1), concentration of the named drug in the combination

Compound: COC(=O)Nc1nc2ccc(C(=O)c3cccs3)cc2[nH]1 [nocodazole]
Inhibition of 3H-colchicine binding (in words) [1]: completely inhibit binding
Competition with 3H-indibulin for tubulin binding [2]: compete

Compound: COc1cc([C@@H]2c3cc4c(cc3[C@H](O)[C@H]3COC(=O)[C@H]23)OCO4)cc(OC)c1OC [podophyllotoxin]
Inhibition of 3H-colchicine binding (in words) [1]: completely inhibit binding
Competition with 3H-indibulin for tubulin binding [2]: compete

Compound: O=c1[nH]cc(F)c(=O)[nH]1 [5-FU, 5-Fluorouracil]
IC50 [3, 10]: 92 ng/mL
Single Agent IC60 [3, 11]: 84 ng/mL
Combination IC50 [3, 13]: 57 ng/mL
Combination IC60 [3, 13]: 30 ng/mL
CI (e), coefficient of interaction under optimal experimental concentrations ([3]; MCF7): 0.46

Compound: N.N.[Cl][Pt][Cl] [Cisplatin]
Single Agent IC50 [4]: 773 ng/mL
Combination IC50 ([4]; indibulin + cisplatin, concentration of the named drug in the combination): 780 ng/mL
CI (e), coefficient of interaction under optimal experimental concentrations [4]: 0.77

Compound: N.N.O=C([O-])C1(C(=O)[O-])CCC1.[Pt+2] [Carboplatin]
Single Agent IC50 [5, 14]: 5,827 ng/mL
Single Agent IC70 [5, 14]: 15365 ng/mL
Combination IC50 [5, 15]: 3481 ng/mL
Combination IC70 [5, 15]: 8044 ng/mL
CI (e), coefficient of interaction under optimal experimental concentrations ([5]; A549): 0.72
Single Agent IC50 [4]: 12,026 ng/mL
Combination IC50 ([4]; indibulin + carboplatin, concentration of the named drug in the combination): 12,881 ng/mL
CI (e), coefficient of interaction under optimal experimental concentrations [4]: 0.73

Compound: C[C@]12CC[C@@H]3c4ccc(OC(=O)N(CCCl)CCCl)cc4CC[C@H]3[C@@H]1CC[C@@H]2O [Estramustine]
IC50 [6]: 29700 ng/mL
Combination IC50 ([6]; indibulin + estramustine): 26,466 ng/mL
CI (e), coefficient of interaction under optimal experimental concentrations [6]: 0.76

Compound: CC[C@]1(O)C[C@H]2CN(CCc3c([nH]c4ccccc34)[C@@](C(=O)OC)(c3cc4c(cc3OC)N(C=O)[C@H]3[C@@](O)(C(=O)OC)[C@H](OC(C)=O)[C@]5(CC)C=CCN6CC[C@]43[C@@H]65)C2)C1 [vincristine]
Inhibition of calf versus bovine brain tubulin polymerization (in words) [7]: inhibited both, calf and bovine brain tubulin polymerization to a similar extent

Compound: COc1cc2c(c(OC)c1OC)-c1ccc(OC)c(=O)cc1[C@@H](NC(C)=O)CC2 [colchicine]
Effect on axonal microtubules (acetylated tubulin immunostaining) [8]: microtubules were partially disrupted

Compound: Nc1ccn([C@@H]2O[C@H](CO)[C@@H](O)C2(F)F)c(=O)n1 [Gemcitabine]
CI (e), coefficient of interaction under optimal experimental concentrations ([5]; A549): 0.93
IC50 [5, 16]: 1.7 ng/mL
IC50 ([4]; SK-OV-3, SKOV3, single agent (combination study), read-out: Single Agent IC50): 11 ng/mL
IC50 ([4]; SK-OV-3, SKOV3, indibulin + gemcitabine, concentration of the named drug in the combination, read-out: Combination IC50): 12 ng/mL
CI (e), coefficient of interaction under optimal experimental concentrations [4]: 0.65

Compound: C#Cc1cccc(Nc2ncnc3cc(OCCOC)c(OCCOC)cc23)c1 [Erlotinib]
Single Agent IC40 [5, 14]: 20315 ng/mL
Combination IC40 ([5]; A549, indibulin + erlotinib (erlotinib:indibulin 208:1), concentration of the named drug in the combination): 4424 ng/mL
CI (e), coefficient of interaction under optimal experimental concentrations ([5]; A549): 0.32
IC50 [5, 16]: 7860 ng/mL
IC50 ([5]; A549, A549, single agent (combination study), read-out: Single Agent IC50): 38500 ng/mL
IC50 ([5]; A549, A549, indibulin + erlotinib (erlotinib:indibulin 208:1), concentration of the named drug in the combination, read-out: Combination IC50): 6200 ng/mL

Compound: CC/C(=C(\c1ccccc1)c1ccc(OCCN(C)C)cc1)c1ccccc1 [Tamoxifen]
Single Agent IC60 [3, 11]: 3166 ng/mL
Combination IC60 ([3]; MCF7, indibulin + tamoxifen (tamoxifen:indibulin 100:1), concentration of the named drug in the combination): 641 ng/mL
CI (e), coefficient of interaction under optimal experimental concentrations ([3]; MCF7): 0.67

The next lines start with results.

Inhibition of 3H-colchicine binding (in words) [1]: no effect
Competition with 3H-indibulin for tubulin binding [2]: do not compete
IC50 [3, 9]: 0.3 ng/mL
IC50 [3, 10]: 1.27 ng/mL
Combination IC50 [3, 12]: 1.08 ng/mL
Compound: CC(=O)O[C@H]1C(=O)[C@@]2(C)[C@H]([C@H](OC(=O)c3ccccc3)[C@]3(O)C[C@H](OC(=O)[C@H](O)[C@@H](NC(=O)c4ccccc4)c4ccccc4)C(C)=C1C3(C)C)[C@]1(OC(C)=O)CO[C@@H]1C[C@@H]2O [Paclitaxel]
Single Agent IC84 [3, 11]: 5.3 ng/mL
Combination IC84 [3, 12]: 2.7 ng/mL
CI (e), coefficient of interaction under optimal experimental concentrations ([3]; MCF7): 0.42

Inhibition of 3H-colchicine binding (in words) [1]: no effect
Competition with 3H-indibulin for tubulin binding [2]: do not compete
Compound: CC[C@]1(O)C[C@@H]2CN(CCc3c([nH]c4ccccc34)[C@@](C(=O)OC)(c3cc4c(cc3OC)N(C)[C@H]3[C@@](O)(C(=O)OC)[C@H](OC(C)=O)[C@]5(CC)C=CCN6CC[C@]43[C@@H]65)C2)C1 [Vinblastine]
CI (e), coefficient of interaction under optimal experimental concentrations ([3]; MCF7): 0.50

IC50 [3, 10]: 7 ng/mL
Combination IC50 ([3]; MCF7, indibulin + doxorubicin, concentration of the named drug in the combination): 3 ng/mL
Compound: COc1cccc2c1C(=O)c1c(O)c3c(c(O)c1C2=O)C[C@@](O)(C(=O)CO)C[C@@H]3O[C@H]1C[C@H](N)[C@H](O)[C@H](C)O1 [Doxorubicin]
CI (e), coefficient of interaction under optimal experimental concentrations ([3]; MCF7): 0.64

IC50 [5, 16]: 52 ng/mL
Compound: COc1cc([C@@H]2c3cc4c(cc3[C@@H](O[C@@H]3O[C@@H]5CO[C@@H](C)O[C@H]5[C@H](O)[C@H]3O)[C@H]3COC(=O)[C@H]23)OCO4)cc(OC)c1O [Etoposide]
Single Agent IC60 [5, 14]: 177 ng/mL
Combination IC60 ([5]; A549, indibulin + etoposide, concentration of the named drug in the combination): 94 ng/mL
CI (e), coefficient of interaction under optimal experimental concentrations ([5]; A549): 1.05

IC50 [3, 9]: 0.18 ng/mL
IC50 [3, 10]: 0.19 ng/mL
Combination IC50 [3, 17]: 0.08 ng/mL
Compound: CCC1=C[C@@H]2CN(C1)Cc1c([nH]c3ccccc13)[C@@](C(=O)OC)(c1cc3c(cc1OC)N(C)[C@H]1[C@@](O)(C(=O)OC)[C@H](OC(C)=O)[C@]4(CC)C=CCN5CC[C@]31[C@@H]54)C2 [Vinorelbine]
Single Agent IC60 [3, 11]: 0.26 ng/mL
Combination IC60 [3, 17]: 0.10 ng/mL

IC50 ([6]; PC3, single agent (combination study)): 137000 ng/mL
Combination IC50 ([6]; indibulin + prednisolone): 145,659 ng/mL
Compound: C[C@]12C=CC(=O)C=C1CC[C@@H]1[C@@H]2[C@@H](O)C[C@@]2(C)[C@H]1CC[C@]2(O)C(=O)CO [Prednisolone]
CI (e), coefficient of interaction under optimal experimental concentrations [6]: 0.91
